Assay results: patent US5112754A, “Tissue plasminogen-activating factor and nonoclonal antibody” (Snow Brand Milk Products Co., Ltd., priority 1985, dated 1992)
Where “and” joins values, the source holds several entries; their conditions need not be identical. Equal values may be shown once. Where a SMILES comes first, the peptide text is derived from it. [ ]: non-standard residue; d: D form. The star is where a group is joined. pNA = O=[N+]([O-])c1ccc(N*)cc1

What was measured:
Type in all cases: biochemical
[1] = biological target: Urokinase (high-molecular type) (Homo sapiens, UniProt P00749); test: Km for synthetic substrate S-2288, urokinase high-molecular type; conditions: for comparison
[2] = biological target: T1, New type of plasminogen activator (non-urokinase tissue type, IMR-90 t-PA) produced by fibroblasts derived from human fetal lung tissue (Homo sapiens, UniProt P00750); test: Km and Vmax for synthetic substrate S-2288, new type of plasminogen activator
T1 construct: Normal fibroblasts of strain IMR-90 (ATCC, CCL-186) derived from human fetal lung tissue were cultured in a serum-free medium; endogenous in cells; host or cells: IMR-90 (ATCC CCL-186) normal human fetal lung fibroblasts; protein purified from the serum-free culture medium
T1 sequence (P00750 36-562): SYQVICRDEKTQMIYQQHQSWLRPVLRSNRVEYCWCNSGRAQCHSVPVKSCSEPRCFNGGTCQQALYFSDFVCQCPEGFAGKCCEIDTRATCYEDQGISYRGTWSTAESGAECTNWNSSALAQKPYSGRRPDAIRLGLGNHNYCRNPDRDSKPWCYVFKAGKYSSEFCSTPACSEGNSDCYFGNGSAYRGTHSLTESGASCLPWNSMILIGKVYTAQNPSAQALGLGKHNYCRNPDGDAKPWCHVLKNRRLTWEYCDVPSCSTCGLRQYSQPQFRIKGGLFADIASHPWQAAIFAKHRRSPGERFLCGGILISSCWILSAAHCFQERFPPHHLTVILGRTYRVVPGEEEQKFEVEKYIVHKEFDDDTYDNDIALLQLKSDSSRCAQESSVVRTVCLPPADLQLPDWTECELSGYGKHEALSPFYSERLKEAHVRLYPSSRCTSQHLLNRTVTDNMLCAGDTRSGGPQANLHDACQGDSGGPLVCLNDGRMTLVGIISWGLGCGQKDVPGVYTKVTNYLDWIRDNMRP

[3] = biological target: Urokinase (low-molecular type) (Homo sapiens, UniProt P00749); test: Vmax for synthetic substrate S-2288, urokinase low-molecular type; conditions: for comparison

CC[C@@H](C)[C@@H](N)C(=O)N1CCC[C@H]1C(=O)N[C@@H](CCCNC(=N)N)C(=O)Nc1ccc([N+](=O)[O-])cc1 [S-2288, H.D.Ile-Pro-Arg-pNa.2HCl] (H-[dI]-Pro-Arg-pNA)
Km [1]: 500 µM | Km ([2]; purified new type of plasminogen activator): 1160 µM and ~1160 µM | Vmax for substrate S-2288 ([2]; purified new type of plasminogen activator, Table 1): 1.7 × 10^-8 mol/min-unit | Vmax for substrate S-2288 ([2]; purified plasminogen activator, unit as printed in running text b36): about 1.7×10^-8 mol/liter | Vmax for substrate S-2288 [3]: 5 × 10^-10 mol/min-unit
